# Patent publication US20090220435A1, “TIGHT JUNCTION MODULATING PEPTIDE COMPONENTS FOR ENHANCING MUCOSAL DELIVERY OF THERAPEUTIC AGENTS” (priority 2005, published 2009)
# Where two headings read alike, the source gives them in different places.
# Legend:
# [1] = system: in vitro epithelial tissue model (EpiAirway™); test: Drug permeation (Papp) in the in vitro epithelial tissue model
# Source text: (§1) A. A “kit” of 24 EpiAirway™ units can routinely be employed for evaluating five different formulations, each of which is applied to quadruplicate wells. Each well is employed for determination of permeation kinetics (4 time points), transepithelial electrical resistance (TER). An additional set of wells is employed as controls, which are sham treated during determination of permeation kinetics, but are otherwise handled identically to the test sample-containing units for determinations of transepithelial resistance and viability.
# (§2) B. In all experiments, the mucosal delivery formulation to be studied is applied to the apical surface of each unit in a volume of 100 μL, which is sufficient to cover the entire apical surface. An appropriate volume of the test formulation at the concentration applied to the apical surface (no more than 100 μL is generally needed) is set aside for subsequent determination of concentration of the active material by ELISA or other designated assay.
# (§3) D. In order to minimize potential sources of error and avoid any formation of concentration gradients, the units are transferred from one 0.9 mL-containing well to another at each time point in the study. These transfers are made at the following time points, based on a zero time at which the 100 μL volume of test material was applied to the apical surface: 15 minutes, 30 minutes, 60 minutes, and 120 minutes.
# (§4) F. At the completion of each time point, the medium is removed from the well from which each unit was transferred, and aliquotted into two tubes (one tube receives 700 μL and the other 200 μL) for determination of the concentration of permeated test material and, in the event that the test material is cytotoxic, for release of the cytosolic enzyme, lactate dehydrogenase, from the epithelium. These samples are kept in the refrigerator if the assays are to be conducted within 24 hours, or the samples are subaliquotted and kept frozen at −80° C. until thawed once for assays. Repeated freeze-thaw cycles are to be avoided.
# (§5) EIA kit (p/n S-1178(EIAH6101) was purchased from Peninsula Laboratories Inc. (Division of BACHEM, San Carlos, Calif., 800-922-1516). 17×120 mm polypropylene conical tubes (p/n 352097, Falcon, Franklin Lakes, N.J.) were used for all sample preparations. Eight standards were used for PTH quantitation. The rest of the assay procedure was the same as the kit inserts.
# (§6) The instant study was designed to evaluate the effect of PN159 itself or in combination with additional permeation enhancers on PTH permeation. The PN159 concentrations evaluated are 25, 50, and 100 μM. The additional permeation enhancers are 45 mg/ml M-β-CD, 1 mg/ml DDPC, and 1 mg/ml EDTA. Sorbitol was used as a tonicifier (146-190 mM) to adjust the osmolarity of formulations to 220 mOsm/kg. The formulation pH was fixed at 4.5. PTH was chosen as a model peptide in this example. 2 mg/ml PTH was combined with PN159 with or without additional permeation enhancers. The combination was tested using an in vitro epithelial tissue model to monitor PTH permeation, transepithelial electrical resistance (TER), and the cytotoxicity of the formulation by LDH assay.
# (§7) The concentrations of MC-4RA in the basolateral media was analyzed by the RP-HPLC using a C18 RP chromatography with a flow rate of 1 mL/minute and a column temperature of 25° C. • Solvent A: 0.1% TFA in water; Solvent B: 0.1% TFA in ACN • Injection Volume: 50 μL • Detection: 220 nm • RUN TIME: 15 MIN
# (§8) Galantamine concentration in the formulation and in the basolateral media (permeation samples) was determined using an isocratic LC (Waters Alliance) method with UV detection. • Column: Waters Symmetry Shield, C18, 5 um, 25×0.46 cm • Mobile phase: 5% ACN in 50 mM ammonium formate, pH 3.0 • Flow rate: 1 ml/min • Column temperature: 30° C. • Calibration curve: 0-400 μg/ml Galantamine HBr • Detection: UV at 285 nm
# [2] = system: EpiAirway™ human-derived tracheal/bronchial epithelial cells; test: Transepithelial electrical resistance (TER) across EpiAirway epithelial cell layer; format: cell-based
# [3] = system: EpiAirway™ human-derived tracheal/bronchial epithelial cells; test: TER recovery after peptide treatment; format: cell-based; details: among all TJMPs tested
# [4] = system: EpiAirway™ human-derived tracheal/bronchial epithelial cells; test: Cytotoxicity (LDH assay); format: cell-based; details: for LDH15: 15 minute treatment at the peptide's optimal concentration; for LDH60: 60 minute treatment at the peptide's optimal concentration
# Experimental: The amount of cell death was assayed by measuring the loss of lactate dehydrogenase (LDH) from the cells using a CytoTox 96 Cytoxicity Assay Kit (Promega Corp., Madison, Wis.). Fifty microliters of sample was loaded into a 96-well assay plates. Fresh, cell-free culture medium was used as a blank. 50 μl of substrate solution was added to each well and the plates incubated for 30 minutes at room temperature in the dark. Following incubation, 50 μl of stop solution was added to each well and the plates read on an optical density plate reader at 490 nm.
# The amount of cell death will be assayed by measuring the loss of lactate dehydrogenase (LDH) from the cells using a CytoTox 96 Cytotoxicity Assay Kit (Promega Corp., Madison, Wis.). Fifty microliters of sample will be loaded into a 96-well assay plates. Fresh, cell-free culture medium will be used as a blank. Fifty microliters of substrate solution will be added to each well and the plates incubated for 30 minutes at room temperature in the dark. Following incubation, 50 μl of stop solution will be added to each well and the plates read on an optical density plate reader at 490 nm. The measurement of LDH release into the basolateral media indicates relative cytotoxicity of the samples. One hundred percent lysis of control inserts with 0.3% Octylphenolpoly(ethyleneglycolether)×(TritonX-100) allows LDH values to be expressed as percentage of total lysis.
# In some embodiments, The amount of cell death was assayed by measuring the release of lactate dehydrogenase (LDH) from the cells into the apical medium using a CytoTox 96 Cytotoxicity Assay Kit (Promega Corp., Madison, Wis.). One percent Octylphenolpoly (ethyleneglycolether)×(Triton X-100™) diluted in phosphate buffered saline (PBS) causes 100% lysis in cultured cells and served herein as a positive control for the LDH assay. Following the one hour incubation period with a test formulation (refer to Table 24 of Example 25 for details of test formulations), the total liquid volume of each insert was brought to a final volume of 200 μl with culture medium. The apical medium was then mixed by pipetting four times with a multichannel pipette set to a 100 μl volume. After mixing, a 100 μl sample from the apical side of each insert was transferred to a new 96-well plate. The apical media samples were sealed with a plate sealer and stored at room temperature for same day analysis or stored overnight at 4° C. for analysis the next day. To measure LDH levels, 5 μl of the 100 μl apical media sample was diluted in 45 μl DPBS in a new 96-well plate. Fresh, cell-free culture medium will be used as a blank. Fifty microliters of substrate solution was added to each well and incubated for 30 minutes at room temperature away from direct light. Following the 30 minute incubation, 50 μl of stop solution was added to each well. Optical density (OD) was measured at 490 nm with a uQuant absorbance plate reader from Biotek Instruments. The measurement of LDH release into the apical media indicates relative cytotoxicity of the samples. Percent cytotoxicity for each test formulation was calculated by subtracting the measured absorbance of the PBS control (basal level of LDH release) from the measured absorbance of the individual test formulation and then dividing that value by the measured absorbance for the 1% Triton X-100™ positive control, multiplied by 100.
# An LDH assay was used to assess the cytotoxicity of the treatments. The LDH level was determined by CytoTox96 Non-Radioactive Cytotoxic Assay (Promega, Madison, Wis.) following the manufacturer's protocol. For basal-lateral LDH levels, triplicates of 50 ul of the basal medium were used to determine the LDH level. For apical LDH level, 150 ul of the diluted apical sample was removed by adding 150 ul of Epi-CM to the apical chamber, the medium was mixed by pipeting up and down, and 150 ul medium was removed and diluted 2× (for a final 8-fold dilution) for assay in triplicates of 50 ul.
# [5] = Drug permeation (Papp) in the in vitro epithelial tissue model; details: human, pH 5, Papp
# Source text: as §1, §2, §3, §4, §5, §6, §7, §8
# [6] = [PN159] 0 μM, galantamine 40 mg/mL pH 5.0, calcitonin 1 mg/mL pH 3.5, PTH1-34 1 mg/mL pH 4.5, PYY3-36 1 mg/mL pH 5.0
# [7] = [PN159] 25 μM, galantamine 40 mg/mL pH 5.0, calcitonin 1 mg/mL pH 3.5, PTH1-34 1 mg/mL pH 4.5, PYY3-36 1 mg/mL pH 7.0
# [8] = [PN159] 100 μM, galantamine 40 mg/mL pH 5.0, calcitonin 1 mg/mL pH 3.5, PTH1-34 1 mg/mL pH 4.5, PYY3-36 1 mg/mL pH 7.0
# [9] = [PN159] 50 μM, galantamine 40 mg/mL pH 5.0, calcitonin 1 mg/mL pH 3.5, PTH1-34 1 mg/mL pH 4.5
Molecule,fold increase in Papp in the presence of PN159 [1],"Papp [1, 6] [×10⁻⁶ cm/s]","Papp [1, 7] [×10⁻⁶ cm/s]",TER reduction ([2]; 10 μM peptide) [%],TER reduction ([2]; 100 μM peptide) [%],TER reduction ([2]; 500 μM peptide) [%],TER recovery time [3],LDH15 [4],LDH60 [4],further results
"CC[C@H](C)[C@H](NC(=O)[C@H](CCC(=O)O)NC(=O)[C@H](CO)NC(=O)[C@@H](NC(=O)[C@@H](N)CO)C(C)C)C(=O)N[C@@H](CCC(N)=O)C(=O)N[C@@H](CC(C)C)C(=O)N[C@@H](CCSC)C(=O)N[C@@H](Cc1cnc[nH]1)C(=O)N[C@@H](CC(N)=O)C(=O)N[C@@H](CC(C)C)C(=O)NCC(=O)N[C@@H](CCCCN)C(=O)N[C@@H](Cc1cnc[nH]1)C(=O)N[C@@H](CC(C)C)C(=O)N[C@@H](CC(N)=O)C(=O)N[C@@H](CO)C(=O)N[C@@H](CCSC)C(=O)N[C@@H](CCC(=O)O)C(=O)N[C@@H](CCCN=C(N)N)C(=O)N[C@H](C(=O)N[C@@H](CCC(=O)O)C(=O)N[C@@H](Cc1c[nH]c2ccccc12)C(=O)N[C@@H](CC(C)C)C(=O)N[C@@H](CCCN=C(N)N)C(=O)N[C@@H](CCCCN)C(=O)N[C@@H](CCCCN)C(=O)N[C@@H](CC(C)C)C(=O)N[C@@H](CCC(N)=O)C(=O)N[C@@H](CC(=O)O)C(=O)N[C@H](C(=O)N[C@@H](Cc1cnc[nH]1)C(=O)N[C@@H](CC(N)=O)C(=O)N[C@@H](Cc1ccccc1)C(=O)O)C(C)C)C(C)C [PTH1-34, human parathyroid hormone 1-34]",3-5 fold,0.11,0.34,,,,,,,"Papp [1, 8]: 0.43 ×10⁻⁶ cm/s"
H-LLETLLKPFQCRICMRNFSTRQARRNHRRRHRR-NH2 (cysteine pairing not given here) [PN202],,,,3,95,95,fastest recovery time,0.0011,0.02,TER reduction ([2]; 50 μM peptide): 57%
H-RRRQRRKRGGDIMGEWGNEIFGAIAGFLG-NH2 [PN250],,,,3,58,84,fastest recovery time,0.0016,0.031,TER reduction ([2]; 25 μM peptide): 17%; TER reduction ([2]; 250 μM peptide): 79%
"COc1ccc2c3c1O[C@H]1C[C@@H](O)C=C[C@@]31CCN(C)C2 [Galantamine, galantamine]",,2.1,,,,,,,,"Papp A→B at 120 min, 40 mg/mL [5, 6]: ~2.1 ×10⁻⁶ cm/s; Papp A→B at 120 min, 40 mg/mL [5, 7]: 5.1 ×10⁻⁶ cm/s; Papp A→B at 120 min, 40 mg/mL [5, 9]: 6.2 ×10⁻⁶ cm/s; Papp A→B at 120 min, 40 mg/mL [5, 8]: 7.2 ×10⁻⁶ cm/s; fold increase in Papp in the presence of PN159 ([1]; PN159 25-100 vs drug alone): 2.5-3.5 fold"
"CC(C)C[C@H](NC(=O)[C@H](CCCCN)NC(=O)CNC(=O)[C@H](CC(C)C)NC(=O)[C@@H](NC(=O)[C@@H]1CSSC[C@H](N)C(=O)N[C@@H](CO)C(=O)N[C@@H](CC(N)=O)C(=O)N[C@@H](CC(C)C)C(=O)N[C@@H](CO)C(=O)N[C@@H]([C@@H](C)O)C(=O)N1)C(C)C)C(=O)N[C@@H](CO)C(=O)N[C@@H](CCC(N)=O)C(=O)N[C@@H](CCC(=O)O)C(=O)N[C@@H](CC(C)C)C(=O)N[C@@H](Cc1c[nH]cn1)C(=O)N[C@@H](CCCCN)C(=O)N[C@@H](CC(C)C)C(=O)N[C@@H](CCC(N)=O)C(=O)N[C@H](C(=O)N[C@@H](Cc1ccc(O)cc1)C(=O)N1CCC[C@H]1C(=O)N[C@@H](CCCNC(=N)N)C(=O)N[C@H](C(=O)N[C@@H](CC(N)=O)C(=O)N[C@H](C(=O)NCC(=O)N[C@@H](CO)C(=O)NCC(=O)N[C@H](C(=O)N1CCC[C@H]1C(N)=O)[C@@H](C)O)[C@@H](C)O)[C@@H](C)O)[C@@H](C)O [Calcitonin, salmon calcitonin]",23-47 fold,0.097,2.2,,,,,,,"Papp ([1]; [PN159] 0 μM, galantamine 40 mg/mL pH 5.0, calcitonin 1 mg/mL pH 3.5, PTH1-34 1 mg/mL pH 4.5, PYY3-36 1 mg/mL pH 5.0, listed as calcitonin): about 1×10^−7 cm/s; Papp [1, 9]: 3.3 ×10⁻⁶ cm/s"
